Assay results reported in ChEMBL document CHEMBL5058649, “Data for DCP probe BAY 1816032” (2022).
Activity calls are given as the source filed them. The rule behind the calls is not given here.

Tests used:
[1] = target: Vascular endothelial growth factor receptor 3 (Homo sapiens) (UniProt P35916); test: FLT4 DiscoveRx kinase panel; conditions: Compound concentration 1.0 uM
[2] = target: Ribosomal protein S6 kinase alpha-6 (Homo sapiens) (UniProt Q9UK32); test: RSK4(Kin.Dom.2-C-terminal) DiscoveRx kinase panel; conditions: Compound concentration 1.0 uM
[3] = target: Serine/threonine-protein kinase Nek6 (Homo sapiens) (UniProt Q9HC98); test: NEK6 DiscoveRx kinase panel; conditions: Compound concentration 1.0 uM
[4] = target: Mitotic checkpoint serine/threonine-protein kinase BUB1 (Homo sapiens, UniProt O43683); test: ePCA binding competition (equilibrium binding assay)
[5] = target: NUAK family SNF1-like kinase 2 (Homo sapiens) (UniProt Q9H093); test: SNARK DiscoveRx kinase panel; conditions: Compound concentration 1.0 uM
[6] = target: Dual specificity mitogen-activated protein kinase kinase 4 (Homo sapiens) (UniProt P45985); test: MEK4 DiscoveRx kinase panel; conditions: Compound concentration 1.0 uM
[7] = target: Ribosomal protein S6 kinase alpha-1 (Homo sapiens) (UniProt Q15418); test: RSK1(Kin.Dom.2-C-terminal) DiscoveRx kinase panel; conditions: Compound concentration 1.0 uM
[8] = target: STE20/SPS1-related proline-alanine-rich protein kinase (Homo sapiens) (UniProt Q9UEW8); test: STK39 DiscoveRx kinase panel; conditions: Compound concentration 1.0 uM
[9] = target: Sodium-dependent serotonin transporter (Homo sapiens) (UniProt P31645); test: Transporter, Serotonin (5- Hydroxytryptamine) (SERT) Eurofins-Panlabs radioligand binding assay; conditions: Compound concentration 10.0 uM
[10] = target: Tyrosine-protein kinase ABL1 (Homo sapiens) (UniProt P00519); test: ABL1-phosphorylated DiscoveRx kinase panel; conditions: Compound concentration 1.0 uM
[11] = target: Phosphatidylinositol 4-phosphate 3-kinase C2 domain-containing subunit beta (Homo sapiens) (UniProt O00750); test: PIK3C2B DiscoveRx kinase panel; conditions: Compound concentration 1.0 uM
[12] = target: cAMP-dependent protein kinase catalytic subunit alpha (Homo sapiens) (UniProt P17612); test: PKAC-alpha DiscoveRx kinase panel; conditions: Compound concentration 1.0 uM
[13] = target: Ephrin type-A receptor 3 (Homo sapiens) (UniProt P29320); test: EPHA3 DiscoveRx kinase panel; conditions: Compound concentration 1.0 uM
[14] = target: Acetylcholinesterase (Homo sapiens) (UniProt P22303); conditions: Compound concentration 10.0 uM
[15] = target: Serine/threonine-protein kinase MAK (Homo sapiens) (UniProt P20794); test: MAK DiscoveRx kinase panel; conditions: Compound concentration 1.0 uM
[16] = target: Receptor-interacting serine/threonine-protein kinase 2 (Homo sapiens) (UniProt O43353); test: RIPK2 DiscoveRx kinase panel; conditions: Compound concentration 1.0 uM
[17] = target: Casein kinase II subunit alpha (Homo sapiens) (UniProt P68400); test: CSNK2A1 DiscoveRx kinase panel; conditions: Compound concentration 1.0 uM
[18] = target: Mitogen-activated protein kinase 8 (Homo sapiens) (UniProt P45983); test: JNK1 DiscoveRx kinase panel; conditions: Compound concentration 1.0 uM
[19] = target: Substance-P receptor (Homo sapiens) (UniProt P25103); test: Inhibition of Tachykinin NK1 at 10 µM in the Eurofins-Panlabs radioligand binding assay (Eurofins_assay_255520); design: ligand concentration 0.8 nM; conditions: Compound concentration 10.0 uM
[20] = target: Phosphatidylinositol 4,5-bisphosphate 3-kinase catalytic subunit gamma isoform (Homo sapiens) (UniProt P48736); test: PIK3CG DiscoveRx kinase panel; conditions: Compound concentration 1.0 uM
[21] = target: Tyrosine-protein kinase Fgr (Homo sapiens) (UniProt P09769); test: FGR DiscoveRx kinase panel; conditions: Compound concentration 1.0 uM
[22] = target: T1, Alpha-2A adrenergic receptor (Homo sapiens) (UniProt P08913); conditions: Compound concentration 10.0 uM
T1 sequence (whole entry): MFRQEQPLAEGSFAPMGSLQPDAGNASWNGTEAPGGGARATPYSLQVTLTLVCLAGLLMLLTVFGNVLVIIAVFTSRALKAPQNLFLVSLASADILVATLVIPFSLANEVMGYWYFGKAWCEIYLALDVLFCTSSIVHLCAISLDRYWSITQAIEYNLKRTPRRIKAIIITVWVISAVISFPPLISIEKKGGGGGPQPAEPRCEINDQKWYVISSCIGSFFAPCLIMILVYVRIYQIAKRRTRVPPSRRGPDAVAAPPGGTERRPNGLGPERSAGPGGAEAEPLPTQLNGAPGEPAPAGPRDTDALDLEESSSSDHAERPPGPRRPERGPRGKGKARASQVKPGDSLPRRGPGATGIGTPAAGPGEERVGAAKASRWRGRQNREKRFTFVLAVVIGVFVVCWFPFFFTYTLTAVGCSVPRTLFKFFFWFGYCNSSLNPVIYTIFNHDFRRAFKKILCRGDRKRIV

[23] = target: Prostaglandin G/H synthase 1 (Homo sapiens) (UniProt P23219); test: Inhibition of Cyclooxygenase COX-1 at compound concentration of 10.0 uM in the Eurofins-Panlabs enzyme assay (Eurofins_assay_116020); conditions: Compound concentration 10.0 uM
[24] = target: Serine/threonine-protein kinase MRCK alpha (Homo sapiens) (UniProt Q5VT25); test: MRCKA DiscoveRx kinase panel; conditions: Compound concentration 1.0 uM
[25] = target: Sigma non-opioid intracellular receptor 1 (Homo sapiens, UniProt Q99720); test: Inhibition of Sigma 1 at 10 µM in the Eurofins-Panlabs radioligand binding assay (Eurofins_assay_278110); design: ligand concentration 8 nM; conditions: Compound concentration 10.0 uM
[26] = target: Mitogen-activated protein kinase kinase kinase kinase 2 (Homo sapiens) (UniProt Q12851); test: MAP4K2 DiscoveRx kinase panel; conditions: Compound concentration 1.0 uM
[27] = target: Muscarinic acetylcholine receptor M4 (Homo sapiens) (UniProt P08173); conditions: Compound concentration 10.0 uM
[28] = target: Calcium/calmodulin-dependent protein kinase kinase 1 (Homo sapiens) (UniProt Q8N5S9); test: CAMKK1 DiscoveRx kinase panel; conditions: Compound concentration 1.0 uM
[29] = target: Interferon-induced, double-stranded RNA-activated protein kinase (Homo sapiens) (UniProt P19525); test: PRKR DiscoveRx kinase panel; conditions: Compound concentration 1.0 uM
[30] = target: Serine/threonine-protein kinase Sgk2 (Homo sapiens) (UniProt Q9HBY8); test: SGK2 DiscoveRx kinase panel; conditions: Compound concentration 1.0 uM
[31] = target: Casein kinase I isoform epsilon (Homo sapiens) (UniProt P49674); test: CSNK1E DiscoveRx kinase panel; conditions: Compound concentration 1.0 uM
[32] = target: Bone morphogenetic protein receptor type-1A (Homo sapiens) (UniProt P36894); test: BMPR1A DiscoveRx kinase panel; conditions: Compound concentration 1.0 uM
[33] = target: Serine/threonine-protein kinase ULK2 (Homo sapiens) (UniProt Q8IYT8); test: ULK2 DiscoveRx kinase panel; conditions: Compound concentration 1.0 uM
[34] = target: Dual specificity testis-specific protein kinase 1 (Homo sapiens) (UniProt Q15569); test: TESK1 DiscoveRx kinase panel; conditions: Compound concentration 1.0 uM
[35] = target: Ribosomal protein S6 kinase alpha-5 (Homo sapiens) (UniProt O75582); test: RPS6KA5(Kin.Dom.2-C-terminal) DiscoveRx kinase panel; conditions: Compound concentration 1.0 uM
[36] = target: Homeodomain-interacting protein kinase 4 (Homo sapiens) (UniProt Q8NE63); test: HIPK4 DiscoveRx kinase panel; conditions: Compound concentration 1.0 uM
[37] = target: Receptor-interacting serine/threonine-protein kinase 1 (Homo sapiens) (UniProt Q13546); test: RIPK1 DiscoveRx kinase panel; conditions: Compound concentration 1.0 uM
[38] = target: Bone morphogenetic protein receptor type-2 (Homo sapiens) (UniProt Q13873); test: BMPR2 DiscoveRx kinase panel; conditions: Compound concentration 1.0 uM
[39] = target: Testis-specific serine/threonine-protein kinase 1 (Homo sapiens) (UniProt Q9BXA7); test: TSSK1B DiscoveRx kinase panel; conditions: Compound concentration 1.0 uM
[40] = target: RAC-alpha serine/threonine-protein kinase (Homo sapiens) (UniProt P31749); test: AKT1 DiscoveRx kinase panel; conditions: Compound concentration 1.0 uM

Sequence of Acetylcholinesterase (Homo sapiens) (P22303 whole entry): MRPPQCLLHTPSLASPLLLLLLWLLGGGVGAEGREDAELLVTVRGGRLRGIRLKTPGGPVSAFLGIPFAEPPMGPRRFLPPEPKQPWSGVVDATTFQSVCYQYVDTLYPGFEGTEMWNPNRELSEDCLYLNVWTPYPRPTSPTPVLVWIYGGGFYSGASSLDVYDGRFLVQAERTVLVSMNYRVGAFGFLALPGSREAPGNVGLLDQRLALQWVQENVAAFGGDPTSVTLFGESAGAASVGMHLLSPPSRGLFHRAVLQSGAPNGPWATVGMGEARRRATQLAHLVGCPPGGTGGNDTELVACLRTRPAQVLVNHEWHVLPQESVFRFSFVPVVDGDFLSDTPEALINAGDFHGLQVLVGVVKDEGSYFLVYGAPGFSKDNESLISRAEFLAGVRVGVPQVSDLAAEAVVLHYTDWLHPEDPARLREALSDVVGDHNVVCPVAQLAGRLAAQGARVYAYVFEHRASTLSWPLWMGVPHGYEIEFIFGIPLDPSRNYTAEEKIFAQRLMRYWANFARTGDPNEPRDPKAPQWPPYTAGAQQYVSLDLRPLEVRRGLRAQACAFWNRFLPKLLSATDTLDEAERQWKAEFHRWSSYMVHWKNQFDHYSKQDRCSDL
Sequence of Serine/threonine-protein kinase MRCK alpha (Homo sapiens) (Q5VT25 whole entry): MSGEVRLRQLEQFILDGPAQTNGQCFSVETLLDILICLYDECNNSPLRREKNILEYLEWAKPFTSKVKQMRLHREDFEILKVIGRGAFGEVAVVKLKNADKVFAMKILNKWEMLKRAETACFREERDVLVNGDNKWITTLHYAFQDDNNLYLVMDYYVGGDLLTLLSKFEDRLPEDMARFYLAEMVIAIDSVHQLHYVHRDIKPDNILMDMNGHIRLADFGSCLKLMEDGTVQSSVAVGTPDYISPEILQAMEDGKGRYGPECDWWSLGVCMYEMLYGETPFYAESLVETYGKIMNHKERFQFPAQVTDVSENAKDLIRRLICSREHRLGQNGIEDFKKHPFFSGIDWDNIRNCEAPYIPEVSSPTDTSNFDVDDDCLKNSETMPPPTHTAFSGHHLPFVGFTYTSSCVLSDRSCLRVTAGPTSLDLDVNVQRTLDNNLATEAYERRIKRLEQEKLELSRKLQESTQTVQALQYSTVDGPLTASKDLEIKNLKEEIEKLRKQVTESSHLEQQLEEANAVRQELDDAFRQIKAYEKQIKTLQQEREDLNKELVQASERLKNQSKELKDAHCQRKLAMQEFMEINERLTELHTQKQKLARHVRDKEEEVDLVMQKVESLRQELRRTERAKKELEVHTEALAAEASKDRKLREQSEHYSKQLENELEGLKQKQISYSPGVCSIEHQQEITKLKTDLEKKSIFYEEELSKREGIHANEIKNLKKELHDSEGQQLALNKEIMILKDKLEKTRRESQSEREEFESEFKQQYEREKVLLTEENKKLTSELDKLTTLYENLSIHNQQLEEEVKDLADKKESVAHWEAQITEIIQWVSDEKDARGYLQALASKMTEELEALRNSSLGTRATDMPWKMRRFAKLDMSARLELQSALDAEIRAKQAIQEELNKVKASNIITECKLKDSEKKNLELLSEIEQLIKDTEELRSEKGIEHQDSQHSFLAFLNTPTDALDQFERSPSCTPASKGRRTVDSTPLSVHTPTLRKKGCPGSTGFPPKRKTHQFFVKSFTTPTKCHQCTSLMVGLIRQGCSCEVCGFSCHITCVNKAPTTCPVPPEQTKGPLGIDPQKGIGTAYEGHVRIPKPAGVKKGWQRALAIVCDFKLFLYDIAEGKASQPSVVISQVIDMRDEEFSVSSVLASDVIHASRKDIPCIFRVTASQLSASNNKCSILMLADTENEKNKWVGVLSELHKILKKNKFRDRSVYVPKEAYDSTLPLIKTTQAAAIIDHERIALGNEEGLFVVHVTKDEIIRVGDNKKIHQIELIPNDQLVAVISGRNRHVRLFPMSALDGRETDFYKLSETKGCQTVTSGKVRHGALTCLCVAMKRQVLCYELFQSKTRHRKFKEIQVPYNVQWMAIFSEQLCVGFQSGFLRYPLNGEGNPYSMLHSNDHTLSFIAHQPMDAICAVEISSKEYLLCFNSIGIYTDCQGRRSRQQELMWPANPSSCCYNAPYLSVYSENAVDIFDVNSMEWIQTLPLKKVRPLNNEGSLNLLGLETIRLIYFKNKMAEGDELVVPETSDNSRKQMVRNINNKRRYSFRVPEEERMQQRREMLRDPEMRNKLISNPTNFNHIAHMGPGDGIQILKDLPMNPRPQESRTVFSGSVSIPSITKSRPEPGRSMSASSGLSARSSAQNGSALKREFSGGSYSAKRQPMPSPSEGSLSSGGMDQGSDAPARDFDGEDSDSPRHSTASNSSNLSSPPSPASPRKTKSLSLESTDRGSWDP
Sequence of Casein kinase I isoform epsilon (Homo sapiens) (P49674 whole entry, looked up, canonical isoform): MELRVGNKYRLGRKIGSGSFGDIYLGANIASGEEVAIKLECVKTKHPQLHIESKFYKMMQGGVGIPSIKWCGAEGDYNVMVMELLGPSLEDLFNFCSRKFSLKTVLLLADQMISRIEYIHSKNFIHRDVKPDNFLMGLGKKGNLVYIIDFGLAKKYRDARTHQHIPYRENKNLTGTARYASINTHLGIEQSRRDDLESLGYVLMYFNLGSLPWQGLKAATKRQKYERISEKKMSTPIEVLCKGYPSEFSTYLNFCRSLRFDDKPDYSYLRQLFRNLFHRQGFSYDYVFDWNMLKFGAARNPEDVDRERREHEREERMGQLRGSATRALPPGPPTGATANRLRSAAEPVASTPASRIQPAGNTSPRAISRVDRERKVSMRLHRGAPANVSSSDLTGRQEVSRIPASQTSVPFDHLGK
Sequence of Calcium/calmodulin-dependent protein kinase kinase 1 (Homo sapiens) (Q8N5S9 whole entry, looked up): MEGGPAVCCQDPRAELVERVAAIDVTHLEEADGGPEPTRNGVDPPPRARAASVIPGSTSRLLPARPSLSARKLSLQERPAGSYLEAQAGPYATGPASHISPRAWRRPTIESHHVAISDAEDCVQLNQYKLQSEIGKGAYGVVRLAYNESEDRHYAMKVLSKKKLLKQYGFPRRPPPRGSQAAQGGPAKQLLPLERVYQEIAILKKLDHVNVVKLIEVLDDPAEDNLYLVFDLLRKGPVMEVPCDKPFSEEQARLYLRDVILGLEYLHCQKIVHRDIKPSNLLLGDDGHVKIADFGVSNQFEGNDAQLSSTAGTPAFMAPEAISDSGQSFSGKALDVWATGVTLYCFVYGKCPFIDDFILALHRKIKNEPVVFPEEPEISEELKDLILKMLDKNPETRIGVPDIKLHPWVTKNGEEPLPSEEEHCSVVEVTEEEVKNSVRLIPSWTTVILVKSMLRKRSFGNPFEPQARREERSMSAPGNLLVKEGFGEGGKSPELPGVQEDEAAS
Sequence of Bone morphogenetic protein receptor type-2 (Homo sapiens) (Q13873 whole entry): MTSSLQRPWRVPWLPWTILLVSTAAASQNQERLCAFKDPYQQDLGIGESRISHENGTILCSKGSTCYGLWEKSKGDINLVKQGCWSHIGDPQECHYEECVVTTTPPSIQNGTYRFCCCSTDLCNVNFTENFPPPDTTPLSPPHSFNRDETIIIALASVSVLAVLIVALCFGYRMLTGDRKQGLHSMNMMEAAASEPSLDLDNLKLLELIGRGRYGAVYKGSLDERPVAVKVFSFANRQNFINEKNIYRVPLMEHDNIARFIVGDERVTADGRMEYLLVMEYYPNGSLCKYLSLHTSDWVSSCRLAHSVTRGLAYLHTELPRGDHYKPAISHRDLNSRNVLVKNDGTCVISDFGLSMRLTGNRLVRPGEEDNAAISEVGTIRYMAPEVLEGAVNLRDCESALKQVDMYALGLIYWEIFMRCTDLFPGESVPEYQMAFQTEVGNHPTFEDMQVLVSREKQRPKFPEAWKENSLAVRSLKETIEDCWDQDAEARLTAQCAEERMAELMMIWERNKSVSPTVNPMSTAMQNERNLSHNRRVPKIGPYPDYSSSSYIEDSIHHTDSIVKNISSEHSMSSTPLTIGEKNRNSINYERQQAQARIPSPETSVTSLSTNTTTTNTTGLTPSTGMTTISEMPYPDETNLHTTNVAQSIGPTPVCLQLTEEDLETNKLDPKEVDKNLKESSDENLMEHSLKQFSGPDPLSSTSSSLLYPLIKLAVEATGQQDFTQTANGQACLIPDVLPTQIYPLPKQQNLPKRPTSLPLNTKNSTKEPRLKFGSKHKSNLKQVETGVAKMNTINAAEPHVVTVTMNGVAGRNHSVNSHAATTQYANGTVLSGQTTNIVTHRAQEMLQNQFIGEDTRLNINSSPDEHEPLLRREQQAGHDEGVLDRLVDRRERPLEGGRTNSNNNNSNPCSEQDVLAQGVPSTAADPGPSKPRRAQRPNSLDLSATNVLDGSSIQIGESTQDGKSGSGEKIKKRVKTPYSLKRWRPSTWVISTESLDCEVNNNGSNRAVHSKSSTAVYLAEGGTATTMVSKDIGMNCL
Sequence of Substance-P receptor (Homo sapiens) (P25103 whole entry, canonical isoform): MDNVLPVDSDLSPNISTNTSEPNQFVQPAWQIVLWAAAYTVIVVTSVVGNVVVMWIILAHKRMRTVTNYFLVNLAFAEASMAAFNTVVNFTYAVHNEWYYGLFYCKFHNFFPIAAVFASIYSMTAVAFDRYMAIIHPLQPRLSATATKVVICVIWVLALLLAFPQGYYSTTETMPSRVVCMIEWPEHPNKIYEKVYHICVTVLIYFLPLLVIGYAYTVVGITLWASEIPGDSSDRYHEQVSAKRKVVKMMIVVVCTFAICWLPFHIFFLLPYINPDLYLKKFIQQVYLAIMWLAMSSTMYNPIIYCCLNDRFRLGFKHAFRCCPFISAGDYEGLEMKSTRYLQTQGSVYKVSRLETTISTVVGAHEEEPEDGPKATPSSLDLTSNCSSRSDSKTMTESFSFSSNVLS
Sequence of Sigma non-opioid intracellular receptor 1 (Q99720 whole entry): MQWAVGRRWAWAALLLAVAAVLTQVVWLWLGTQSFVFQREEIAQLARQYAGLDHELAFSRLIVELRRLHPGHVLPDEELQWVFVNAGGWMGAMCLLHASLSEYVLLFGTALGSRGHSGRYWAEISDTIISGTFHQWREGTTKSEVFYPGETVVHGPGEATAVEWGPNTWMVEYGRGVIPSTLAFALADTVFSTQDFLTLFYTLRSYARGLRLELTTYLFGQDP

## COc1cnccc1Nc1nc(-c2nn(Cc3c(F)cc(OCCO)cc3F)c3ccccc23)ncc1OC
[1]
  residual activity: 82%
[2]
  residual activity: 100%
[3]
  residual activity: 70%
[4]
  IC50: 1 nM (active)
[5]
  residual activity: 99%
[6]
  residual activity: 90%
[7]
  residual activity: 100%
[8]
  residual activity: 97%
[9]
  inhibition: 4%
[10]
  residual activity: 94%
[11]
  residual activity: 100%
[12]
  residual activity: 100%
[13]
  residual activity: 85%
[14]
  inhibition: 2%
[15]
  residual activity: 73%
[16]
  residual activity: 82%
[17]
  residual activity: 100%
[18]
  residual activity: 79%
[19]
  inhibition: 19%
[20]
  residual activity: 80%
[21]
  residual activity: 92%
[22]
  inhibition: 2%
[23]
  inhibition: 54%
[24]
  residual activity: 72%
[25]
  inhibition: -3%
[26]
  residual activity: 100%
[27]
  inhibition: 8%
[28]
  residual activity: 100%
[29]
  residual activity: 88%
[30]
  residual activity: 100%
[31]
  residual activity: 100%
[32]
  residual activity: 74%
[33]
  residual activity: 100%
[34]
  residual activity: 57%
[35]
  residual activity: 100%
[36]
  residual activity: 90%
[37]
  residual activity: 97%
[38]
  residual activity: 100%
[39]
  residual activity: 100%
[40]
  residual activity: 100%
